From US8951997B2, “Substituted isoquinoline derivative” (D. Western Therapeutics Institute, Inc., priority 2009, dated 2015)
Counter-ions that a name gives are not always drawn.

Key:
[1] = test system: spontaneously hypertensive rats (SHR/Izm); assay: Blood pressure lowering effect in spontaneously hypertensive rats; type: in vivo, rat; conditions: male, intraperitoneal
Experimental: The compound of the present invention was intraperitoneally administered to spontaneously hypertensive rats (SHR/Izm, sex: male, 4 to 6 rats per group) and evaluated for its blood pressure lowering effect. Examples 32, 34, and 35 were used as test compounds.
Each test compound was dissolved in saline and diluted to prepare a test compound solution with a predetermined concentration.
The test drug was intraperitoneally administered at a dose of 10 mg/kg (except for 30 mg/kg for Example 34) to the animals (4 to 6 rats per group), and their blood pressures and pulse rates were measured over time using Softron Indirect Blood Pressure Meter BP-98A.

[2] = test system: rabbits (New Zealand White); assay: Ocular hypotensive effect in rabbits; type: in vivo, rabbit; conditions: Oryctolagus cuniculus, topical, 0.04 mL dropped to one eye, vehicle to contralateral eye, test compound solution concentration 10 (W/V), read-out: Maximum ocular hypotensive rate
Experimental: The compound of the present invention was administered to rabbits (New Zealand White, sex: male, 3 to 7 per group) and evaluated for its ocular hypotensive effect.
Each test compound was dissolved in a vehicle (1.04 g of sodium dihydrogen phosphate dihydrate and 0.5 g of sodium chloride dissolved in purified water and then adjusted to pH 7.0 with sodium hydroxide to make the total amount to 100 mL) to prepare a test compound solution with a concentration of 10 (W/V).
The intraocular pressures of the rabbits were measured using Tiolat TonoVet handheld tonometer immediately before administration of test compound. The test compound solution and the vehicle were dropped at a volume of 0.04 mL to one eye and the contralateral eye, respectively, and the intraocular pressures were measured over time in the same way as above. The rate of the intraocular pressure of the eye receiving the test compound solution to that of the eye receiving the vehicle was calculated as an ocular hypotensive rate.

[3] = test system: rats (SD); assay: Blood pressure lowering effect in rats; type: in vivo, rat; conditions: male, intraperitoneal, 10 mg/kg
Experimental: The compound of the present invention was intraperitoneally administered to rats (SD, sex: male, 6 rats per group) and evaluated for its blood pressure lowering effect. Example 18 was used as a test compound.
The test compound was dissolved in saline and diluted to prepare a test compound solution with a predetermined concentration.
The test drug was intraperitoneally administered at a dose of 10 mg/kg to the rats (6 rats per group), and their blood pressures and pulse rates were measured over time using Softron Indirect Blood Pressure Meter BP-98A.

[4] = test system: NG108-15 cells; assay: Neurite outgrowth promoting effect; type: cell-based; conditions: NG108-15 cells, 10, 3, 1, or 0.3 μmol/L, 24 hours, compared with cells cultured in the absence of the compound
Experimental: To examine the usefulness of the compound of the present invention as a therapeutic agent for neurodegenerative diseases, NG108-15 cells frequently used as a model of neurons were cultured in the presence of the compound of the present invention, which was then evaluated for its neurite outgrowth promoting effect. Examples 15 and 49 were used as test compounds.
Each test compound was dissolved in dimethyl sulfoxide and diluted to prepare a test compound solution with a predetermined concentration.
The NG108-15 cells (obtained from ATCC) were cultured in a Dulbecco's modified eagle's medium containing 5% fetal bovine serum and 1×HAT (hypoxanthine, aminopterin, and thymidine). The cells were inoculated at 12,000 cells/well to a 24-well plate and statically cultured at 37° C. for 12 hours in an environment of 5% CO2 and 95% air. Then, each test compound was added at a final concentration of 10, 3, 1, or 0.3 μmol/L. 24 hours later, the degree of neurite outgrowth was observed under an inverted microscope.

[5] = test system: rabbits (New Zealand White); assay: Ocular hypotensive effect in rabbits; type: in vivo, rabbit; conditions: Oryctolagus cuniculus, topical, 0.04 mL dropped to one eye, vehicle to contralateral eye, test compound concentration of 2%, read-out: Maximum ocular hypotensive rate
[6] = test system: mouse model of spinal cord injury; assay: Motor function recovering effect on a spinal cord injury model of the mouse; type: in vivo; conditions: C57BL/6Cr mice, 3 mg/kg intraperitoneal once a day for 7 days, day 14 after operation, score 0 normal to 72 most serious, saline group 41
Experimental: To examine the usefulness of the compound of the present invention as a therapeutic agent for spinal cord injury, the mouse model of spinal cord injury was prepared and a motor function recovering effect after spinal cord injury was investigated.
Example 14 as a test compound was dissolved in saline and diluted to prepare a test compound solution with a predetermined concentration.
C57BL/6Cr mice (female, body weight: around 19 g, 6 to 8 […] per group) were anesthetized by halothane inhalation. The spinal cord at the level of the eighth thoracic vertebrae was compressed with 20 g of weight for 5 minutes to prepare a spinal cord injury model, according to the method described in the document (Acta Neuropathol. 100, 13-22 (2000)). The test compound was intraperitoneally administered at a dose of 3 mg/kg once a day for 7 consecutive days from the surgery day. After 1, 4, 7, 10, and 14 days from the preparation of the spinal cord injury model, the severity of neurological dysfunction was scored by a partial modification of the performance score described in J. Neurosurg. 93 (Spine 1), 94-101(2000). The details of the behavioral score are as follows:
Open field locomotion (rated 0 to 42)
Toe spread (rated 0 to 5)
Contact place response (rated 0 to 5)
Withdrawal reflexes (rated 0 to 5 for each reflex to extension, pain, and pressure stimulations)
Righting reflex (rated 0 to 5) […]

Q: With `C[C@H]1CCNCCN1S(=O)(=O)c1ccc2cnccc2c1` [Example 32, (S)-6-(7-methyl-1,4-diazepan-1-ylsulfonyl)isoquinoline dihydrochloride] as the compound, how does the pulse rate ([1]; 10 mg/kg) read?
A: increased

Q: What about the “systolic blood pressure lowered compared with the value before administration” value ([1]; 10 mg/kg) of the same compound?
A: 16%

Q: And the inhibition in vivo at 10 % [2]?
A: ≥ 15%

Q: Which results are given for `C[C@@H]1CCNC[C@@H](C)N1S(=O)(=O)c1ccc2cnccc2c1` [Example 35, (2R,7R)-6-(2,7-dimethyl-1,4-diazepan-1-ylsulfonyl)isoquinoline dihydrochloride]?
A: pulse rate ([1]; 10 mg/kg): increased; inhibition in vivo at 10 % [2]: ≥ 15%

Q: How did the pulse rate [3] turn out when `C[C@@H]1CNCCCN1S(=O)(=O)c1ccc2cnccc2c1` [Example 18, (R)-6-(2-methyl-1,4-diazepan-1-ylsulfonyl)isoquinoline dihydrochloride] was run?
A: increased

Q: And the “systolic blood pressure lowered compared with the value before administration” value ([3]; maximum lowering)?
A: ≥ 30%

Q: What about the inhibition in vivo at 10 % [2] of the same compound?
A: ≥ 15%

Q: What does the source list for `C[C@H]1CNCCCN1S(=O)(=O)c1ccc2cnccc2c1Br` [Example 15, (S)-5-bromo-6-(2-methyl-1,4-diazepan-1-ylsulfonyl)isoquinoline dihydrochloride]?
A: inhibition in vivo at 10 % [2]: ≥ 15%; degree of neurite outgrowth [4]: remarkable neurite outgrowth

Q: `C[C@@H]1CNCCCCN1S(=O)(=O)c1ccc2c(SCCN)nccc2c1` [Example 52, (R)-1-(2-aminoethylthio)-6-(2-methyl-1,4-diazocan-1-ylsulfonyl)isoquinoline trihydrochloride] was tested. Which inhibition in vivo at 2 % [5] did it give?
A: ≥ 15%

Q: With `C[C@@H]1CNCCCCN1S(=O)(=O)c1ccc2cnccc2c1` [Example 14, (R)-6-(2-methyl-1,4-diazocan-1-ylsulfonyl)isoquinoline dihydrochloride] as the compound, how does the inhibition in vivo at 10 % [2] read?
A: ≥ 15%

Q: And the neurological dysfunction score [6]?
A: 33

Q: Which inhibition in vivo at 2 % [5] does the source give for `C[C@@H]1CCNCCN1S(=O)(=O)c1ccc2c(SCCN)nccc2c1` [Example 51, (R)-1-(2-aminoethylthio)-6-(7-methyl-1,4-diazepan-1-ylsulfonyl)isoquinoline trihydrochloride] here?
A: ≥ 15%

Q: How did the inhibition in vivo at 10 % [2] turn out when `Cc1c(S(=O)(=O)N2CCCNC[C@@H]2C)ccc2cnccc12` [Example 49, (S)-5-methyl-6-(2-methyl-1,4-diazepan-1-ylsulfonyl)isoquinoline] was run?
A: ≥ 15%

Q: What about the “degree of neurite outgrowth” value [4] of the same compound?
A: remarkable neurite outgrowth

Q: Which pulse rate ([1]; 30 mg/kg) does the source give for `C[C@@H]1CCNCCN1S(=O)(=O)c1ccc2cnccc2c1` [Example 34, (R)-6-(7-methyl-1,4-diazepan-1-ylsulfonyl)isoquinoline dihydrochloride] here?
A: increased

Q: And the inhibition in vivo at 10 % [2]?
A: ≥ 15%
